# Measured values: PubChem BioAssay (NCI)
#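 A five-concentration, 48-hour dose response in 96-well plates underlies each endpoint, interpolated linearly between surrounding concentrations. GI50: concentration for 50% inhibition of growth. TGI is the concentration that stops growth completely.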
# Assays:
# Test in all cases: NCI tumour cell line growth inhibition, 48 h
# U251 CNS = test system: U251 CNS
# SR leukemia = test system: SR leukemia
# MCF7 breast = test system: MCF7 breast
# NCI-H522 lung = test system: NCI-H522 lung
# SNB-19 CNS = test system: SNB-19 CNS
# T-47D breast = test system: T-47D breast
# OVCAR-3 ovarian = test system: OVCAR-3 ovarian
# ACHN renal = test system: ACHN renal
# MALME-3M melanoma = test system: MALME-3M melanoma
# HT29 colon = test system: HT29 colon
# OVCAR-4 ovarian = test system: OVCAR-4 ovarian
# SF-539 CNS = test system: SF-539 CNS
# OVCAR-8 ovarian = test system: OVCAR-8 ovarian
# A549 NSCLC = test system: A549 NSCLC
# 786-0 renal = test system: 786-0 renal
# UO-31 renal = test system: UO-31 renal
# MDA-MB-435 = test system: MDA-MB-435
# SF-268 CNS = test system: SF-268 CNS
# UACC-62 melanoma = test system: UACC-62 melanoma
# SNB-75 CNS = test system: SNB-75 CNS
# RPMI-8226 leukemia = test system: RPMI-8226 leukemia
# UACC-257 melanoma = test system: UACC-257 melanoma
# BT-549 breast = test system: BT-549 breast
# PC-3 prostate = test system: PC-3 prostate
# CAKI-1 renal = test system: CAKI-1 renal
# HOP-92 NSCLC = test system: HOP-92 NSCLC
# SK-MEL-28 melanoma = test system: SK-MEL-28 melanoma
# CCRF-CEM leukemia = test system: CCRF-CEM leukemia
# MDA-MB-231 breast = test system: MDA-MB-231 breast
# HCC-2998 colon = test system: HCC-2998 colon
# SW-620 colon = test system: SW-620 colon
# KM12 colon = test system: KM12 colon
# IGROV1 ovarian = test system: IGROV1 ovarian
# LOX IMVI melanoma = test system: LOX IMVI melanoma
# SK-OV-3 ovarian = test system: SK-OV-3 ovarian
# HOP-62 NSCLC = test system: HOP-62 NSCLC
# NCI-H226 lung = test system: NCI-H226 lung
# SF-295 CNS = test system: SF-295 CNS
# HCT-15 colon = test system: HCT-15 colon
# M14 melanoma = test system: M14 melanoma
# EKVX NSCLC = test system: EKVX NSCLC
# RXF 393 renal = test system: RXF 393 renal
# NCI/ADR-RES ovarian = test system: NCI/ADR-RES ovarian
# SK-MEL-2 melanoma = test system: SK-MEL-2 melanoma
# NCI-H460 lung = test system: NCI-H460 lung
# HCT-116 colon = test system: HCT-116 colon
# SN12C renal = test system: SN12C renal
# OVCAR-5 ovarian = test system: OVCAR-5 ovarian
# DU-145 prostate = test system: DU-145 prostate
# TK-10 renal = test system: TK-10 renal
# COLO 205 colon = test system: COLO 205 colon
# NCI-H23 lung = test system: NCI-H23 lung
# A498 renal = test system: A498 renal
# K-562 leukemia = test system: K-562 leukemia
# HL-60(TB) leukemia = test system: HL-60(TB) leukemia
# SK-MEL-5 melanoma = test system: SK-MEL-5 melanoma
# MOLT-4 leukemia = test system: MOLT-4 leukemia
structure (smiles),measurement,setting,value
NC(=O)c1ccc2nc3c(n2c1)C(=O)C(=O)c1ccccc1-3,GI50,U251 CNS,296 nM
same,TGI,U251 CNS,928 nM
same,GI50,SR leukemia,488 nM
same,TGI,SR leukemia,3860 nM
same,GI50,MCF7 breast,230 nM
same,TGI,MCF7 breast,702 nM
same,GI50,NCI-H522 lung,679 nM
same,TGI,NCI-H522 lung,2180 nM
same,GI50,SNB-19 CNS,1100 nM
same,TGI,SNB-19 CNS,2310 nM
same,GI50,T-47D breast,415 nM
same,TGI,T-47D breast,2540 nM
same,GI50,OVCAR-3 ovarian,240 nM
same,TGI,OVCAR-3 ovarian,630 nM
same,GI50,ACHN renal,1340 nM
same,TGI,ACHN renal,2620 nM
same,GI50,MALME-3M melanoma,171 nM
same,TGI,MALME-3M melanoma,311 nM
same,GI50,HT29 colon,2400 nM
same,TGI,HT29 colon,6010 nM
same,GI50,OVCAR-4 ovarian,481 nM
same,TGI,OVCAR-4 ovarian,1710 nM
same,GI50,SF-539 CNS,621 nM
same,TGI,SF-539 CNS,1850 nM
same,GI50,OVCAR-8 ovarian,403 nM
same,TGI,OVCAR-8 ovarian,1630 nM
same,GI50,A549 NSCLC,2180 nM
same,TGI,A549 NSCLC,4480 nM
same,GI50,786-0 renal,1630 nM
same,TGI,786-0 renal,2990 nM
same,GI50,UO-31 renal,1470 nM
same,TGI,UO-31 renal,2790 nM
same,GI50,MDA-MB-435,186 nM
same,TGI,MDA-MB-435,336 nM
same,GI50,SF-268 CNS,436 nM
same,TGI,SF-268 CNS,1660 nM
same,GI50,UACC-62 melanoma,545 nM
same,TGI,UACC-62 melanoma,1770 nM
same,GI50,SNB-75 CNS,1560 nM
same,TGI,SNB-75 CNS,2920 nM
same,GI50,RPMI-8226 leukemia,2200 nM
same,TGI,RPMI-8226 leukemia,5520 nM
same,GI50,UACC-257 melanoma,570 nM
same,TGI,UACC-257 melanoma,1780 nM
same,GI50,BT-549 breast,1360 nM
same,TGI,BT-549 breast,2650 nM
same,GI50,PC-3 prostate,1040 nM
same,TGI,PC-3 prostate,2780 nM
same,GI50,CAKI-1 renal,1670 nM
same,TGI,CAKI-1 renal,3220 nM
same,GI50,HOP-92 NSCLC,1770 nM
same,TGI,HOP-92 NSCLC,3330 nM
same,GI50,SK-MEL-28 melanoma,1070 nM
same,TGI,SK-MEL-28 melanoma,2290 nM
same,GI50,CCRF-CEM leukemia,931 nM
same,TGI,CCRF-CEM leukemia,5420 nM
same,GI50,MDA-MB-231 breast,850 nM
same,TGI,MDA-MB-231 breast,2320 nM
same,GI50,HCC-2998 colon,1600 nM
same,TGI,HCC-2998 colon,3130 nM
same,GI50,SW-620 colon,1880 nM
same,TGI,SW-620 colon,4050 nM
same,GI50,KM12 colon,1390 nM
same,TGI,KM12 colon,2970 nM
same,GI50,IGROV1 ovarian,1630 nM
same,TGI,IGROV1 ovarian,3340 nM
same,GI50,LOX IMVI melanoma,264 nM
same,TGI,LOX IMVI melanoma,787 nM
same,GI50,SK-OV-3 ovarian,1780 nM
same,TGI,SK-OV-3 ovarian,3180 nM
same,GI50,HOP-62 NSCLC,1390 nM
same,TGI,HOP-62 NSCLC,2800 nM
same,GI50,NCI-H226 lung,1710 nM
same,TGI,NCI-H226 lung,3800 nM
same,GI50,SF-295 CNS,1670 nM
same,TGI,SF-295 CNS,3070 nM
same,GI50,HCT-15 colon,1460 nM
same,TGI,HCT-15 colon,3550 nM
same,GI50,M14 melanoma,381 nM
same,TGI,M14 melanoma,1230 nM
same,GI50,EKVX NSCLC,1650 nM
same,TGI,EKVX NSCLC,3010 nM
same,GI50,RXF 393 renal,1640 nM
same,TGI,RXF 393 renal,3020 nM
same,GI50,NCI/ADR-RES ovarian,1880 nM
same,TGI,NCI/ADR-RES ovarian,6190 nM
same,GI50,SK-MEL-2 melanoma,633 nM
same,TGI,SK-MEL-2 melanoma,1910 nM
same,GI50,NCI-H460 lung,1530 nM
same,TGI,NCI-H460 lung,3340 nM
same,GI50,HCT-116 colon,327 nM
same,TGI,HCT-116 colon,1210 nM
same,GI50,SN12C renal,965 nM
same,TGI,SN12C renal,2330 nM
same,GI50,OVCAR-5 ovarian,1720 nM
same,TGI,OVCAR-5 ovarian,3150 nM
same,GI50,DU-145 prostate,928 nM
same,TGI,DU-145 prostate,2240 nM
same,GI50,TK-10 renal,1820 nM
same,TGI,TK-10 renal,3230 nM
same,GI50,COLO 205 colon,1910 nM
same,TGI,COLO 205 colon,3820 nM
same,GI50,NCI-H23 lung,420 nM
same,TGI,NCI-H23 lung,2800 nM
same,GI50,A498 renal,1730 nM
same,TGI,A498 renal,3140 nM
same,GI50,K-562 leukemia,677 nM
same,TGI,K-562 leukemia,3730 nM
same,GI50,HL-60(TB) leukemia,2120 nM
same,TGI,HL-60(TB) leukemia,5180 nM
same,GI50,SK-MEL-5 melanoma,936 nM
same,TGI,SK-MEL-5 melanoma,2250 nM
same,GI50,MOLT-4 leukemia,1020 nM
same,TGI,MOLT-4 leukemia,4210 nM
